*1 amine or outer side, *2 acyl side, *3 side chain or, on linkers, in order; H or OH if unused. Where a SMILES comes first, the peptide text is derived from it. [ ]: non-standard residue; d: D form. Gly(N(CH2)2(3-indolyl)) = O=C(O)CNCCc1c[nH]c2ccccc12; Gly(N-(CH2)3-guanidino) = N=C(N)NCCCNCC(=O)O; X1 = O=C(CN(CCc1ncc[nH]1)[*:1])[*:2]; Gly(N(CH2)3NH2) = NCCCNCC(=O)O; N(iPr)Gly = CC(C)NCC(=O)O
Test system: human IgG (hIgG)
Experiment: Batch mode IgG binding to peptoid-functionalized Toyopearl AF-amino 650 M resin
Settings: polyclonal hIgG 0.5 mg/mL in PBS, 2 mg hIgG per mL resin, 45 min at 22° C., elution 0.1 M glycine pH 2.5, ELISA and SDS-PAGE (FIG. 1, FIG. 2)
Description: FIG. 1. Batch mode IgG adsorption to Toyopearl AF-amino 650 M resins functionalized with different peptoid ligands. IgG in the flow-through fractions (black) indicate the percent hIgG that was not adsorbed to the resin relative to the mass of hIgG loaded. The elution fractions (grey) indicate the percent of human IgG that was bound in phosphate buffered saline (PBS) and eluted (0.1 M glycine, pH 2.5) relative to the initial concentration of IgG that was loaded. Concentrations of hIgG in all fractions were determined by ELISA. The unmodified resin served as the negative control. Binding trials were done in duplicate for each resin.
FIG. 2. Reducing SDS-PAGE analysis of elution and flow-through fractions from hIgG adsorption experiments. Lanes designated “FT” and “Elute” are the flow-through and elution fractions, respectively. The lane marked “hIgG loaded” is the pre-adsorbed hIgG solution that was incubated with each resin tested. The heavy and light chains of hIgG migrate at ˜55 and ˜25 kDa, respectively, on reducing SDS-PAGE gels.
IgG Binding to Resin: The ability of the peptoid affinity ligands to bind human IgG (hIgG) was tested in batch mode. A 50% slurry of the resin was prepared, of which 200 μl (˜100 mg resin) was transferred into the spin column. The resin was throughly washed with dH2O and equilibrated with PBS prior to hIgG exposure. Polyclonal hIgG (Equitech-Bio) was diluted to 0.5 mg/mL with PBS. After equilibration, a 0.5 mg/mL solution of hIgG was added to the resin to achieve a ratio of 2 mg hIgG per mL of resin, and allowed to incubate for 45 min at 22° C. with vigorous shaking. After incubation, the resin was centrifuged at 500×g for 2 min in which the filtrate of this step was collected and labeled as “flow-through” fraction. The resin was subsequently washed 2× with PBS. Elution buffer (0.1 M glycine, pH 2.5) was added to the resin and mixed vigorously for 10 min at 22° C. After centrifugation (500×g for 2 min) bound hIgG was eluted from the resin and collected in the filtrate. The amount of hIgG found in the flow-through and elution fraction was determined using an ELISA-based quantitative assay (Bethyl, Cat. No. E80-104). hIgG yields were determined as the ratio of hIgG mass in the elution fraction and hIgG mass in the loading solution (FIG. 1). SDS-PAGE analysis of all collected fractions was carried out to determine product purity and evaluate the ligand selectivity (FIG. 2).

Row | ability of the peptoid affinity ligands to bind human IgG (hIgG) to the resin | Structure (SMILES)
1 | useful for binding IgG to the resin | N=C(N)NCCCN(CC(=O)NCC(=O)O)C(=O)CN(CCc1c[nH]c2ccccc12)C(=O)CNCCc1ncc[nH]1 [Ligand G003]
2 | useful for binding IgG to the resin | CC(C)N(CC(=O)O)C(=O)CN(CCc1c[nH]c2ccccc12)C(=O)CNC(=O)CN(CCCN)C(=O)CN(CCc1c[nH]c2ccccc12)C(=O)CNCCc1ncc[nH]1 [Ligand G012] (H-[X1][Gly(N(CH2)2(3-indolyl))][Gly(N(CH2)3NH2)]G[Gly(N(CH2)2(3-indolyl))][N(iPr)Gly]-OH)
3 | useful for binding IgG to the resin | CC(C)N(CC(=O)O)C(=O)CN(CCc1c[nH]c2ccccc12)C(=O)CNC(=O)CN(CCCNC(=N)N)C(=O)CN(CCc1c[nH]c2ccccc12)C(=O)CNCCc1ncc[nH]1 [Ligand G001] (H-[X1][Gly(N(CH2)2(3-indolyl))][Gly(N-(CH2)3-guanidino)]G[Gly(N(CH2)2(3-indolyl))][N(iPr)Gly]-OH)
4 | useful for binding IgG to the resin | N=C(N)NCCCN(CC(=O)O)C(=O)CN(CCc1c[nH]c2ccccc12)C(=O)CNCCc1ncc[nH]1 [Ligand G005]

— patent US10065988B2, “Peptoid affinity ligands” (Stefano Menegatti, priority 2013, dated 2018)
